Data on one compound can be found in patent publication US20170298056A1, “SMALL MOLECULE INHIBITORS OF HIV-1 ENTRY AND METHODS OF USE THEREOF” (Dana-Farber Cancer Institute, Inc., priority 2014, published 2017).

Assay [1] concerns HIV-1HXBc2. Description: Cold inactivation of recombinant virus. The following applies: in the presence of 18A vs DMSO or unrelated compounds. Type of assay: cell-based. As for the experimental part:
(§1) For washout experiments, different concentrations of 18A were incubated with the recombinant viruses at 37° C. for 20 minutes. The viruses were laid on a 20% sucrose cushion and ultracentrifuged at 30,000 RPM in an SW55 rotor for 1.5 hours at 4° C. After the supernatant was aspirated, viruses were suspended in 500-1000 μl medium and 90 μl of the virus suspension was used to infect 5000 Cf2Th-CD4/CCR5 cells (5 replicates). The cells were incubated for 48 hours and processed as described above. Sensitivity of recombinant viruses to cold inactivation was measured.

For a further assay, the system named is HIV-1ADA. Description: Viral infection assay, ADA Env (wild type, ΔV1V2, CD4-independent N197S). Type of assay: cell-based. The following applies: for Fold change: mutant/wild-type IC50. As for the experimental part: To study CD4-independent infection, the full-length HIV-1ADA N197S Env mutant was used. This Env is an ADA-HXBc2 chimera with an N197S change. The control “wild-type” ADA Env used in these experiments is also an ADA-HXBc2 chimera.
(§2) Production of recombinant HIV-1 expressing luciferase. […] After 48 hours, the supernatant was collected, buffered with 50 mM Hepes pH 7.4 (final concentration) and centrifuged for 5 minutes at 750×g and 4° C. The virus-containing supernatant was used directly or frozen at −80° C.
(§3) Viral infection assay. Each test compound was serially diluted in DMSO in a 96-well B&W isoplate (PerkinElmer, Boston, Mass.) using an HP D300 Digital Dispenser, to a final volume of 450 nl. DMSO was used as a control. Viruses pseudotyped with a specific Env were added to each well and incubated briefly at room temperature. Cf2Th-CD4/CCR5 cells were detached with StemPro Accutase Cell Dissociation Reagent (Invitrogen, cat #A11105-01), washed once, and 5000 cells were added to each well. […] Following incubation, the medium was aspirated and cells were lysed with 30 μl of Passive Lysis Buffer (Promega, cat #E1941). The activity of the firefly luciferase, which was used as a reporter protein in the system, was measured with a Centro LB 960 luminometer (Berthold Technologies, Oak Ridge, Tenn.). One hundred microliters of assay buffer (15 mM MgSO4, 15 mM KH2PO4/K2HPO4 pH 7.8, 1 mM ATP and 1 mM DTT) was injected to each well, followed by a 50 μl injection of 1 mM Dluciferin potassium salt (BD Pharmingen, San Jose, Calif.); luminescence was measured for 2 sec. Infection of PBMC was done as above, but 20,000-40,000 cells/well and viruses concentrated by ultracentrifugation were used. After four hours of incubation with viruses, the cells were centrifuged at 200×g for 6 minutes at 4° C., resuspended in 100 μl RPMI-PBMC medium and incubated at 37° C. for an additional 36-40 hours (total 40-44 hours). Supernatant was removed after centrifugation at 400×g for 5 minutes and cells were processed to detect luciferase activity, as described above.

Assay [2] deals with all CCR5-using HIV-1 isolates. Nature of the assay: Viral infection assay, panel of CCR5-using HIV-1 isolates. Format: cell-based. The conditions noted are these: Cf2Th-CD4/CCR5 cells. As for the experimental part: as §2
as §3, with “Infection of PBMC was done as above, but 20,000-40,000 cells/well and viruses concentrated by ultracentrifugation were used. After four hours of incubation with viruses, the cells were centrifuged at 200×g for 6 minutes at 4° C., resuspended in 100 μl RPMI-PBMC medium and incubated at 37° C. for an additional 36-40 hours (total 40-44 hours). Supernatant was removed after centrifugation at 400×g for 5 minutes and cells were processed to detect luciferase activity, as described above.” left out

Assay [3] has as its system cell-surface HIV-1JR-FL WTKA Env. Description: Binding of 17b, 19b, 2G12, PGT121 antibodies to cell-surface Env (flow cytometry). As for the experimental part:
Flow cytometry. […] After 48-72 hours, cells were detached with 5 mM EDTA/PBS and between 0.5-1 million cells were briefly incubated with various concentrations of 18A and then with or without the indicated concentrations of sCD4. C34-Ig (at a final concentration of 20 μg/ml) or a specified antibody (at final concentration of 1 μg/ml) was added to the cells. […] Cells were washed twice and analyzed with a BD FACSCanto II flow cytometer (BD Biosciences). For analysis of resistant mutants (FIG. 5e-g), the measurements were normalized for the level of sCD4 binding of each mutant, and the response of each mutant was further normalized to that of the wild-type HIV-1JR-FL E168K+N188AΔCT Env (herein designated WTKA). […] The sCD4 IC50/sCD4 binding ratio (FIGS. 4c and e) was calculated as follows. Binding of sCD4 to different envelope mutants was measured by flow cytometry and normalized first to 2G12 binding to account for potentially different Env expression levels, and then to sCD4 binding to the wild-type HIV-1JR-FL Env. The IC50 of sCD4 for inhibition of virus infection by each mutant Env was divided by the normalized sCD4 binding to Env-expressing cells to calculate the sCD4 IC50/sCD4 binding value.

Another assay concerns HIV-1JR-FL. Description: Washout experiment, HIV-1JR-FL infection. Type of assay: cell-based. The conditions noted are these: washing out before infection. As for the experimental part:
as §1

Assay [4] has as its system HIV-1HXBc2. Description: Viral infection assay, CXCR4-tropic virus, Cf2Th-CD4/CXCR4 cells. Type of assay: cell-based. The following applies: HIV-1HXBc2, Cf2Th cells expressing CD4 and CXCR4.

Where two headings read alike, the source gives them in different places.

As usually defined, the IC50 is the point on the concentration scale where inhibition reaches its midpoint.

As for `O=C(N/N=C/c1ccc(O)cc1)Nc1cccc2nsnc12` [Compound 18A], in the assay with HIV-1HXBc2 [1], the “sensitivity of virus to cold inactivation” value is “decreased sensitivity to cold inactivation”. The IC50 was 12.8 ± 1.5 µM in the assay on HIV-1ADA (ADA Env wild type); 10.8 ± 2 µM in the assay with HIV-1ADA (ADA Env ΔV1V2); < 6 µM in assay [2] (read-out: IC50 values of the majority (75%) of CCR5-using HIV-1 isolates); 5.7 µM in assay [2] (read-out: average IC50 for all CCR5-using HIV-1 isolates); ~25 µM in the assay with HIV-1HXBc2 [4]. The Fold change with HIV-1ADA (ADA Env wild type) was found to be 1; in the assay with HIV-1ADA (ADA Env ΔV1V2), 0.8. Moreover, the “infection of CD4-negative, CCR5-expressing cells” value in the assay with HIV-1ADA (CD4-independent HIV-ADA N197S) is given as “protected CD4-negative, CCR5-expressing cells from infection”. For the same compound, the “entry into CD4/CCR5-expressing cells” value in the assay with HIV-1ADA (wild-type HIV-1ADA and HIV-1ADA N197S) is “blocked by 18A with a similar profile of inhibition”. Besides, the “binding of 19b and 2G12, sCD4-induced decrease of PGT121 binding” value in assay [3] is listed as “No significant effect”. Besides, in assay [3] (in the presence of 18A, no sCD4), the “17b binding to cell surface-expressed Env trimer” value is given as “reduction in 17b binding”. For the same compound, the “reversibility of inhibition of HIV-1 infection” value with HIV-1JR-FL was “reversible”.
